The source of these data is US20120214784A1, “SPIROPIPERIDINE COMPOUNDS AS ORL-1 RECEPTOR ANTAGONISTS” (ELI LILLY AND COMPANY, priority 2009, published 2012).

The term Ki denotes a dissociation constant, usually derived from enzyme kinetics or from competition with a known ligand.

The nature of series [1]: Rat hepatic microsomal glutathione trapping assay. Type of series: in vitro ADME. The note with it: hepatic microsomal homogenate, glutathione as nucleophile. The text has this:
Assuming that reactive metabolites may play a role in clinical IDRs, minimizing the potential for oxidative bioactivation has been proposed as a means of improving the overall safety profile of compounds containing structural features associated with such reactivity. (see Baillie, Thomas A., Approaches to the Assessment of Stable and Chemically Reactive Drug Metabolites in Early Clinical Trials, Chemical Research in Toxicology, vol 22(2) 2009.) To this end, representative compounds of the present invention and related compounds are screened using a rat hepatic microsomal trapping assay, using glutathione as an endogenous nucleophile, to understand the potential for oxidative bioactivation of the thienyl moiety. […] Of the compounds tested, those wherein R^2a and R^2b are fluoro are found to not show glutathione conjugate formation.

For series [2], the system named is wild type and ORL knockout mice. The series can be described thus: Blockade of fasting-induced hyperphagia in mice. Type of series: in vivo, mouse. The text has this: Blockade of fasting-induced hyperphagia in rats is an accepted model for hyperphagic eating disorders. […] Mice are individually housed a minimum of 3 days prior to the onset of testing to eliminate any effects of stress due to the change from group to individual housing. Three mice/genotype are randomly assigned to each treatment group on the test day. Pre-fast body weight measurements are taken, and food is then removed from cages overnight. Mice are fasted for approximately 15 hr. The next morning, the mice are given one of three doses of drug or vehicle via oral gavage 30 min. prior to gaining access to food. Drugs are dissolved in 20% Captisol dissolved in 25 mM phosphate buffer, pH 2.0. Measurements of body weight are taken immediately prior to drug treatment or 24 hr. after access to food is restored. […] Measurements of food intake are recorded 1 hr following access to food, as indicated, by weight of food remaining at 1 hr. It should be noted that food intake measured is during the light phase, a time during which mice are typically at rest and not normally eating. Following initial testing, mice are rested for 1 week with access to unlimited chow.

Series [3] addresses T1, nociceptin/ORL1 receptors (Rattus norvegicus, UniProt P35370).
T1 construct: rats are sacrificed by cervical dislocation and the hypothalamus is removed; from tissue; host or cells: rat hypothalamus (in vivo occupancy)
The series can be described thus: In vivo receptor occupancy (LC/MS/MS, RO Tracer) in hypothalamus.

For series [4], the system named is NIH-Swiss mice; 129S6 wild type and nociceptin/ORL1 receptor knockout mice. Put plainly: Forced-swim test in mice (mFST). In kind it is in vivo, mouse. The text has this:
Forced-Swim Test in Mice (mFST) mFST is an established in vivo assay for antidepressant activity (Li et al. J Pharmacol Exp Ther. 319(1):254-9, 2006.). […] The mFST was used to evaluate potential antidepressant-like activity of novel nociceptin/ORL1 antagonists according to previously published methods (Li et al. J Pharmacol Exp Ther. 319(1):254-9, 2006.). Briefly, male NIH-Swiss mice (Harlan Sprague-Dawley, Indianapolis, Ind.) weighing between 25-30 g are used. Group housed animals are removed from the vivarium to the testing area in their own cages and allowed to adapt to the new environment for at least 1 hour before testing. Alternatively, male 129S6 wild type and nociceptin/ORL1 receptor knockout mice were used to confirm dependence of the response to compound was nociceptin/ORL1 receptor dependent. All compounds are prepared in 20% Captisol, 25 mM phosphate buffer, pH 2.0 on the day of use. Mice are placed in a cylinder (diameter: 10 cm; height: 25 cm) filled with 6 cm of water (22-25° C.) for 6 min. The duration of immobility during the last 4 min. of the 6 min. period of the test was scored. A mouse is recorded as immobile when floating motionless or making only those movements necessary to keep its head above water.

The target of series [5] is T2, cloned human ORL1 receptors (Homo sapiens, UniProt P41146).
T2 construct: expressed in transfected cells; host or cells: CHO cells (membranes)
T2 sequence (P41146 whole entry): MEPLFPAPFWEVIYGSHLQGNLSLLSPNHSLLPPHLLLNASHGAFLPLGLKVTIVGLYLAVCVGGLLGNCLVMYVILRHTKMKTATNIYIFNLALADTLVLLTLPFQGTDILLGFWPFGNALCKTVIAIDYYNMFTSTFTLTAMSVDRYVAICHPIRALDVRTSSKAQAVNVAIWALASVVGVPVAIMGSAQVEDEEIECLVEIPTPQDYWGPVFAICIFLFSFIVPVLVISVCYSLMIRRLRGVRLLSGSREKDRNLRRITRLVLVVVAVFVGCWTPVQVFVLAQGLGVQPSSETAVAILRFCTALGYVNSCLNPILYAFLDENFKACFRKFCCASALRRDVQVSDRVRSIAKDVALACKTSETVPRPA
Put plainly: [3H]-OFQ/nociceptin receptor binding assay. As to the method: Radioligand binding assays are commonly used to determine the affinity (Ki) or potency of a compound to bind to a particular receptor or target protein. A filtration-based [3H]-OFQ/nociceptin receptor binding assay is developed based on previous assay formats (Ardati A, Henningsen R A, Higelin J, Reinscheid R K, Civelli O, Monsma F J Jr. Mol. Pharmacol. 1997 May; 51(5):816-24.) with minor modifications. [3H]-OFQ/nociceptin binding assays are carried out in deep-well 96-well plates. [^3H]OFQ (final assay concentration 0.2 nM) competition studies are carried out with 5-10 μg of membrane protein (isolated from Chinese hamster ovary cells (CHO cells) expressing cloned human ORL1 receptors) in a final assay volume of 0.5 mL of buffer containing 20 mM HEPES, pH 7.4, 5 mM MgCl2, 1 mM EGTA, 100 mM NaCl, 0.1% bovine serum albumin. Samples are incubated for 60 min. at room temperature, which is found to be optimal for competition assays. The assays are terminated by filtration through glass fiber filters (Wallac filtermat A) [pretreated with 0.3% polyethylenimine (Sigma) for 1 hr] on a Tometc cell harvester, and the filters are washed three times with 5 mL of ice-cold 50 mM Tris.HCl, pH 7.4. Filtermats are then dried and imbedded with Meltilex scintillant A and the radioactivity counted in a Wallac Microbeta scintillation counter. Specific binding is determined by displacement with 100 nM unlabeled nociceptin. Curves are plotted as the percent of specific binding and IC50 values are determined using a sigmoidal dose response curve with variable slope. K, values are calculated from the IC50 by the equation of Cheng and Prusoff (Cheng, Y. C., and Prusoff, W. H., Biochem. Pharmacol. 22, 3099-3108 (1973)) where Ki=IC50×(1+D×Kd^−1)^−1. Similarly, Ki for the mu, kappa and delta opioids, serotonin, adrenergic, and muscarinic receptors may be determined using membranes expressing the desired receptor and appropriate corresponding radioligand competitor molecules.

In series [6] the target is T3, cloned human ORL1/nociceptin receptors (Homo sapiens, UniProt P41146).
T3 construct: expressed in transfected cells
T3 sequence (P41146 whole entry): as above
Put plainly: Functional blockade of agonist-mediated G-protein activation, GTP-γ-[35S] binding. In kind it is biochemical. The text has this:
Agonist-mediated stimulation of G-protein coupled receptors results in the activation of membrane associated Gαβγ-protein heterotrimer complexes, and represents the first step in the transduction of extracellular signals to modification of intracellular pathways. The first step in activation of receptor-mediated activation of Gαβγ-proteins heterotrimer is the exchange of Gα subunit bound guanosine diphoshpate (GDP) for guanosine triphosphate (GTP). The binding of GTP to the Gα subunit causes dissociation of the heterotrimer subunits, Gβ and Gγ, resulting in the modulation of several intracellular signaling cascades. Measurement of receptor-mediated G-protein activation can be measured using the non-hydrolyzable radiolabeled analog of GTP, GTP-γ-[35S]. Utilizing this methodology, antagonist affinity (Kb) is measured in membranes expressing cloned human ORL1/nociceptin receptors using a GTP-γ-[35S] binding assay according to previously described protocols with minor modifications (DeLapp et al., J Pharmacol Exp Ther. 1999 May; 289(2):946-55; Ozaki et al., Eur J Pharmacol. 2000 Aug. 18; 402(1-2):45-53). Assays are conducted in a 200-μl volume with the following buffer composition: 100 mM NaCl, 20 mM HEPES, 5 mM MgCl2, 1 mM EDTA, 0.1% BSA, 3 μM GDP, 0.5 nM [^35S]GTPγS. ORL1 receptor membrane suspension is added at a concentration of 20 μg protein per well and receptor stimulation is achieved using 300 nM nociceptin/OFQ. Wheat germ agglutinin coated SPA beads (Amersham, Arlington Hts., Ill.) are added at 1 mg per well to detect membrane-bound [^35S]GTPγS. Plates are sealed and incubated for 2 hr. at room temperature. Plates are then placed at 4° C. overnight to allow the SPA beads to settle and then counted in a Wallac Microbeta. Specific [^35S]GTPγS binding is determined as the difference in CPM observed in the absence and presence of 10 μM unlabeled GTPγS. Data are plotted as the percent of specific [^35S]GTPγS bound. Curves are plotted as the percent of specific binding and IC50 values are determined using a sigmoidal dose response curve with variable slope. Antagonist affinity (Kb) is estimated according to DeLapp et al., 1999 using a modification of the equation of Cheng and Prusoff (1973) where Kb=IC50×(1+D×EC50^−1)^−1.
(In general: Binding of GTPγS marks nucleotide exchange on a G protein.)

Where [7] appears, read: wild type mice, oral gavage 30 min. prior to food, food intake 1 hr.

T1 sequence (P35370 whole entry): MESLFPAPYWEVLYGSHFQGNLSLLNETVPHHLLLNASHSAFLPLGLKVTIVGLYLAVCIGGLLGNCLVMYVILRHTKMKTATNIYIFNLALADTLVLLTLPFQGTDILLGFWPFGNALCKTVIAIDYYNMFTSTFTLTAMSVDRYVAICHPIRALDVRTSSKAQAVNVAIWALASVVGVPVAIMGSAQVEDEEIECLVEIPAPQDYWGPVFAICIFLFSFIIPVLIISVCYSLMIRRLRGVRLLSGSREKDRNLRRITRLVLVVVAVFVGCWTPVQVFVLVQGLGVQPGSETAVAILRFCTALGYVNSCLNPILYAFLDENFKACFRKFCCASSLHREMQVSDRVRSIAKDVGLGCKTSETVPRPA

Turning to `Cc1nn(-c2c(F)cccc2C(N)=O)cc1CN1CCC2(CC1)OCCc1cc(F)sc12.O=C(O)C(O)C(O)C(=O)O` [Example 9, 3-fluoro-2-[4-[(2-fluorospiro[4,5-dihydrothieno[2,3-c]pyran-7,4′-piperidine]-1′-yl)methyl]-3-methyl-pyrazol-1-yl]benzamide (L)-Tartrate], the Glutathione conjugate formation entry in series [1] is “Yes”.
`Cc1nn(-c2c(F)cccc2CO)cc1CN1CCC2(CC1)OCC(F)(F)c1cc(Cl)sc12.O=C(O)C(O)C(O)C(=O)O` [Example 1, [2-[4-[(2-Chloro-4,4-difluoro-spiro[5H-thieno[2,3-c]pyran-7,4′-piperidine]-1′-yl)methyl]-3-methyl-pyrazol-1-yl]-3-fluoro-phenyl]methanol (L)-Tartrate]: the fasting-induced hyperphagia entry in series [2] (setting [7]) is reported as “substantially block fasting-induced hyperphagia”.
In series [3] (iv, intravenously 30 mg/kg 1 hr. prior to RO Tracer, positive control), `Cc1cccc2c1CC[C@@H](CN1CCC(c3c(Cl)cccc3Cl)CC1)C[C@H]2O` [SB612111, (−)-cis-1-methyl-7-[[4-(2,6-dichlorophenyl)piperidin-1-yl]methyl]-6,7,8,9-tetrahydro-5H-benzocyclohepten-5-ol, reference compound] yielded a receptor occupancy at 30 mg/kg of about 100%.
As to `Clc1cccc(N2CCNCC2)c1` [mCPP, meta-chlorophenylpiperazine, reference compound], the fasting-induced hyperphagia result in series [2] (ORL-1 knockout mouse strain) and in series [2] (setting [7]) was “significantly reduce fasting induced hyperphagia” in each case.
`Cc1nn(-c2c(F)cccc2C(N)=O)cc1CN1CCC2(CC1)OCC(F)(F)c1cc(F)sc12.O=C(O)C(O)C(O)C(=O)O` [Example 18, 3-fluoro-2-[3-methyl-4-[(2,4,4-trifluorospiro[5H-thieno[2,3-c]pyran-7,4′-piperidine]-1′-yl)methyl]pyrazol-1-yl]benzamide (L)-Tartrate]: in series [1], the Glutathione conjugate formation entry is on record as “No”.
Turning to `Cc1nn(-c2c(F)cccc2C(N)=O)cc1CN1CCC2(CC1)OCCc1c2sc(F)c1F.O=C(O)C(O)C(O)C(=O)O` [3-fluoro-2-[4-[(2,3-difluorospiro[4,5-dihydrothieno[2,3-c]pyran-7,4′-piperidine]-1′-yl)methyl]-3-methyl-pyrazol-1-yl]benzamide (L) Tartrate, reference compound], in series [1], the Glutathione conjugate formation result is reported as “Yes”.
`CN(C)CCCN1c2ccccc2CCc2ccccc21` [imiprimine, reference compound]: the immobilization time entry in series [4] (ORL-1 knockout mice) and in series [4] (wild type mice) was “reduce immobilization times” throughout.
For the molecule `Cc1nn(-c2c(F)cccc2-n2ccnc2C)cc1CN1CCC2(CC1)OCC(F)(F)c1cc(Cl)sc12.O=C(O)C(O)C(O)C(=O)O` [Example 47, 2-Chloro-4,4-difluoro-1′-[[1-[2-fluoro-6-(2-methylimidazol-1-yl)phenyl]-3-methyl-pyrazol-4-yl]methyl]spiro[5H-thieno[2,3-c]pyran-7,4′-piperidine] (L)-Tartrate], the affinity in series [5], expressed as Ki, was 0.26 nM. In addition, the Kb in series [6] turned out to be 0.15 nM. In addition, in series [3] (oral 3 mg/kg dose after 6 hr.), the receptor occupancy at 3 mg/kg was 84%. Besides, the fasting-induced hyperphagia entry in series [2] (setting [7]) was “substantially block fasting-induced hyperphagia”.
